Measurements from US20160271126A1, “PHARMACEUTICAL COMPOSITION” (Hoffmann-La Roche Inc., priority 2013, published 2016).

Columns and labels:
Solubility of bitopertin = assay type: physicochemical
Excerpt: (§1) Being a BCS 2 molecule (according to the Biopharmaceutics Classification System, wherein the molecule has high permeability and low solubility), the API particles size distribution has been identified as a major critical quality attribute of the drug substance. […] Thus, micronized API was selected for development of a suitable formulation.

[1] = Biopharmaceutics Classification System class; assay type: physicochemical; design: key: 2: the molecule has high permeability and low solubility
Excerpt: as §1

solubility in aqueous buffers and in water (Solubility of bitopertin; aqueous buffers and water): practically insoluble
solubility in polar organic solvents (Solubility of bitopertin; polar organic solvents): freely soluble
BCS class (Biopharmaceutics Classification System) [1]: 2
Structure (SMILES): C[C@H](Oc1ccc(S(C)(=O)=O)cc1C(=O)N1CCN(c2ncc(C(F)(F)F)cc2F)CC1)C(F)(F)F [Bitopertin]
